#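 Grown in 96-well plates, cells were treated for 48 hours with each compound at five concentrations. Insufficient inhibition: endpoint recorded as highest concentration tested. At the GI50, growth is halved.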 Activity calls are given as the source filed them. Rule as the data show it: active = GI50 up to about 1.1 µM and inactive = higher.
# Key:
# Assay in all cases: DTP human tumour cell line panel, 48 h
# [1] = tested on: MDA-N
# [2] = tested on: SK-MEL-28
# [3] = tested on: LOX IMVI
# [4] = tested on: A498
# [5] = tested on: SNB-19
# [6] = tested on: MCF7
# [7] = tested on: T47D
# [8] = tested on: MDA-MB-435
# [9] = tested on: OVCAR-5
# [10] = tested on: ACHN
# [11] = tested on: OVCAR-3
# [12] = tested on: HOP-62
# [13] = tested on: EKVX
# [14] = tested on: OVCAR-8
# [15] = tested on: 786-0
# [16] = tested on: RPMI-8226
# [17] = tested on: UACC-257
# [18] = tested on: SF-539
# [19] = tested on: TK-10
# [20] = tested on: NCI/ADR-RES
Structure (SMILES),GI50 [1],GI50 [2],GI50 [3],GI50 [4],GI50 [5],GI50 [6],GI50 [7],GI50 [8],GI50 [9],GI50 [10],GI50 [11],GI50 [12],GI50 [13],GI50 [14],GI50 [15],GI50 [16],GI50 [17],GI50 [18],GI50 [19],GI50 [20]
COc1ccc2c3c1OC1C(OC)(OC)C=C[C@@]4(Br)[C@@H](C2)N(CC2CC2)CC[C@]314 (stereo not given in full),49.5 µM (inactive),> 100 µM (inactive),87.9 µM (inactive),> 100 µM (inactive),> 100 µM (inactive),52.1 µM (inactive),97.9 µM (inactive),61.2 µM (inactive),> 100 µM (inactive),> 100 µM (inactive),46.7 µM (inactive),> 100 µM (inactive),> 100 µM (inactive),61.4 µM (inactive),> 100 µM (inactive),> 100 µM (inactive),69.8 µM (inactive),> 100 µM (inactive),> 100 µM (inactive),> 100 µM (inactive)
Nc1cc2c(c3ccccc13)C(CCl)CN2C(=O)c1cc2cc(NC(=O)c3cc4ccccc4o3)ccc2[nH]1 (stereo not given),0.00817 µM (active),0.0123 µM (active),0.00262 µM (active),0.00184 µM (active),0.0124 µM (active),0.00075 µM (active),0.00158 µM (active),0.0055 µM (active),0.00753 µM (active),0.000492 µM (active),0.00885 µM (active),0.000891 µM (active),0.11 µM (active),0.000408 µM (active),0.00121 µM (active),0.228 µM (active),0.00627 µM (active),0.11 µM (active),0.00429 µM (active),0.00136 µM (active)
COc1cc(/C=C2\CCC(C)C3=C(c4cc(OC)c(OC)c(OC)c4)C(C#N)=C(N)OC32)cc(OC)c1OC (stereo not given),2.47 µM (inactive),2.85 µM (inactive),2 µM (inactive),4 µM (inactive),11.6 µM (inactive),2.24 µM (inactive),2.1 µM (inactive),2.76 µM (inactive),6.56 µM (inactive),3.89 µM (inactive),4.1 µM (inactive),7.45 µM (inactive),3.08 µM (inactive),3.3 µM (inactive),1.95 µM (inactive),1.63 µM (inactive),4.32 µM (inactive),2.26 µM (inactive),4.21 µM (inactive),3.74 µM (inactive)

# From ChEMBL document CHEMBL1201862, “PubChem BioAssay data set” (2004)
